Results on 14 compounds are retold here after ChEMBL document CHEMBL1955794, “β-Carboline alkaloids from the leaves of Trigonostemon lii Y.T. Chang” (Bioorg Med Chem Lett, 2012).

What is called IC50 is the concentration at which inhibition is half-maximal. A lower IC50 goes with greater potency.

SMILES strings stand for the structures.

What all share (type): functional, cell-based
In one experiment the test system is A549. Kind of experiment: Cytotoxicity against human A549 cells after 48 hrs by MTT assay. To be noted: A549, 48 h. A general note: Tetrazolium dyes change colour on reduction, which living cells bring about.
Another experiment deals with SMMC-7721. Kind of experiment: Cytotoxicity against human SMMC7721 cells after 48 hrs by MTT assay. To be noted: SMMC-7721, 48 h.
The test system of a further experiment is SW480. Nature of the experiment: Cytotoxicity against human SW480 cells after 48 hrs by MTT assay. The note with it: SW480, 48 h.
A further experiment deals with HL-60. Kind of experiment: Cytotoxicity against human HL60 cells after 48 hrs by MTT assay. The note with it: HL-60, 48 h.
Another experiment deals with MCF7. Nature of the experiment: Cytotoxicity against human MCF7 cells after 48 hrs by MTT assay. To be noted: MCF7, 48 h.

With `COC(=O)c1nccc2c1[nH]c1cc(OC)ccc12` [HARMIC ACID METHYL ESTER], the IC50 in the experiment on A549, with SMMC-7721, with SW480, in the experiment on HL-60 and with MCF7 was greater than 40 µM throughout.
For the compound `COc1ccc2c(c1)[nH]c1c(C(C)=O)nccc12` [ARENARINE C], the half-maximal inhibitory concentration (IC50) with A549, with SMMC-7721, in the experiment on SW480, in the experiment on HL-60 and with MCF7 was greater than 40 µM throughout.
In the case of `COc1ccc2c(-c3nccc4c3[nH]c3ccccc34)ccnc2c1` [TRIGONOSTEMONINE D], the IC50 with A549, in the experiment with SMMC-7721, with SW480, with HL-60 and in the experiment on MCF7 was greater than 40 µM in each case.
As for `COc1ccc2c(c1)[nH]c1c(-c3ccnc4ccccc34)nc(O)cc12` [TRIGONOSTEMINE E], the IC50 with A549 was 24.3 µM; with SMMC-7721 it was 23.5 µM; in the experiment on SW480, 39.1 µM; with HL-60, 18.8 µM; in the experiment with MCF7 it was 14.4 µM.
In the same order, the values of `O=C1NCCc2c1[nH]c1ccccc21` are greater than 40 µM, greater than 40 µM, greater than 40 µM, greater than 40 µM and greater than 40 µM.
In the same order, the values of `COc1ccc2c(C(=O)c3nccc4c3[nH]c3cc(OC)ccc34)c[nH]c2c1` [TRIGONOSTEMINE B] are 8.67 µM, 4.78 µM, 3.55 µM, greater than 40 µM and 2.98 µM.
The matching figures for `COc1ccc2c(-c3nc(O)cc4c3[nH]c3ccccc34)ccnc2c1` [TRIGONOSTEMINE F]: greater than 40 µM, greater than 40 µM, greater than 40 µM, greater than 40 µM and greater than 40 µM.
In the case of `COc1ccc2c(c1)[nH]c1c(C(=O)c3c(O)[nH]c4ccccc34)nccc12` [TRIGONOSTEMINE C], the half-maximal inhibitory concentration (IC50) in the experiment on A549 was 18.5 µM; with SMMC-7721, 16 µM; in the experiment on SW480 it was 17.2 µM; with HL-60 it was greater than 40 µM; in the experiment on MCF7 it was 16.1 µM.
The matching figures for `COc1ccc2c(C(=O)c3nccc4c3[nH]c3ccccc34)c(O)[nH]c2c1` [TRIGONOSTEMINE D]: greater than 40 µM, greater than 40 µM, greater than 40 µM, greater than 40 µM and 13.8 µM.
In the same order, the values of `COc1ccc2c(=O)n3c(nc2c1)-c1[nH]c2ccccc2c1CC3` are greater than 40 µM, greater than 40 µM, greater than 40 µM, greater than 40 µM and greater than 40 µM.
In the same order, the values of `COc1ccc2c(C3=NCCc4c3[nH]c3ccccc43)ccnc2c1` [TRIGONOSTEMONINE E] are greater than 40 µM, greater than 40 µM, greater than 40 µM, greater than 40 µM and greater than 40 µM.
In the case of `COc1ccc2c(c1)[nH]c1c(-c3ccnc4ccccc34)nccc12` [TRIGONOSTEMONINE C], the IC50 is 23.1 µM with A549; 15.5 µM in the experiment with SMMC-7721; greater than 40 µM with SW480; 13.4 µM with HL-60; greater than 40 µM in the experiment on MCF7.
With `COc1ccc2c(c1)[nH]c1c(C(=O)c3c[nH]c4ccccc34)nccc12` [TRIGONOSTEMINE A], the IC50 came to 23.9 µM with A549; 22.4 µM in the experiment with SMMC-7721; 4.86 µM in the experiment on SW480; 13.4 µM in the experiment on HL-60; 5.3 µM in the experiment on MCF7.
As to `COc1ccc2c3c([nH]c2c1)-c1nc2ccccc2c(=O)n1CC3`, the IC50 in the experiment with A549, in the experiment on SMMC-7721, with SW480, with HL-60 and in the experiment with MCF7 was greater than 40 µM each time.
